Reference: patent EP1247803A2, “Indolinone compounds suitable for modulation of protein kinases” (Sugen, Inc., priority 1996, dated 1998)

Experiments:
EGFR = biological target: T1, EGFR (Homo sapiens, UniProt P00533); assay: EGFR ELISA assay (in vitro kinase activity, EGFR captured from A431 cell lysate); type: biochemical; set-up: concentration or dose not given beside the values
T1 construct: Add 7 ug A431 cell lysate per well (EGFR source); endogenous in cells; host or cells: A431
How it was run: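 Receptor autophosphorylation was read by ELISA: anti-phosphotyrosine serum and an HRP-linked secondary with ABTS substrate, absorbance at 410 nm (reference 630 nm). The reaction ran 5 min with 3 µM ATP and 5 mM MnCl2 and was quenched by 20 mM EDTA. Compounds were first incubated 30 min with antibody-captured EGFR from A431 cell lysate.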

PDGF-R = PDGF-R (Homo sapiens, UniProt P09619); assay: PDGF-R ELISA; type: cell-based
Chain of PDGF-R (P09619 33-1106, species assumed): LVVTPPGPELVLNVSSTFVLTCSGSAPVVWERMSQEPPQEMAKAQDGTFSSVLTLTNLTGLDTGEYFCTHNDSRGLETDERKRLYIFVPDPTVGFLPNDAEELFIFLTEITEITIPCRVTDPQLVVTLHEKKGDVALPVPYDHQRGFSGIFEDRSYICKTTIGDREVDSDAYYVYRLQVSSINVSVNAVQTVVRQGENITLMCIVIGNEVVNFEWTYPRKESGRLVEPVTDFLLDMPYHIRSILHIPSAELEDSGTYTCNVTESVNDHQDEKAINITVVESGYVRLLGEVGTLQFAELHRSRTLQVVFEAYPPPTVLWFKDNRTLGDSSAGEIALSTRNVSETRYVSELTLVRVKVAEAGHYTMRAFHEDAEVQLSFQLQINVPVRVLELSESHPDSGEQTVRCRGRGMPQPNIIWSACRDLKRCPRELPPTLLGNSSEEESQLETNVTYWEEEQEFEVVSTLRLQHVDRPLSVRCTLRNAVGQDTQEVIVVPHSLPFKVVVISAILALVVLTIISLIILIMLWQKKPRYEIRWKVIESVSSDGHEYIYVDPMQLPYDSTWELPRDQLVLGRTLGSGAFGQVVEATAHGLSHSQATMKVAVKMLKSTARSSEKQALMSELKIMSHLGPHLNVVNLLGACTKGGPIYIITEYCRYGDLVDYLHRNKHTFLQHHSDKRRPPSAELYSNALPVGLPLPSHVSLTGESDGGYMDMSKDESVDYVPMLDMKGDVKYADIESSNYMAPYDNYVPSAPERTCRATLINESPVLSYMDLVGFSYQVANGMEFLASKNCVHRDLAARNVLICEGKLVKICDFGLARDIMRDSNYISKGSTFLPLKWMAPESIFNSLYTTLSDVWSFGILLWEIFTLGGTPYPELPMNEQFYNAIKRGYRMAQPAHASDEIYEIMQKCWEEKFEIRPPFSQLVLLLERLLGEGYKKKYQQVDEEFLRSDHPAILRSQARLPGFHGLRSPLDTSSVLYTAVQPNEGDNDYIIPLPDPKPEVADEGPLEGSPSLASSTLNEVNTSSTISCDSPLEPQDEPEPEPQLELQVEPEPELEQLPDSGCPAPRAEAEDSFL
Source text: A PDGF-R ELISA is described in International Patent Publication No. WO 96/40116, published December 19, 1996 by Tang et al.

T1 sequence (P00533 25-1210): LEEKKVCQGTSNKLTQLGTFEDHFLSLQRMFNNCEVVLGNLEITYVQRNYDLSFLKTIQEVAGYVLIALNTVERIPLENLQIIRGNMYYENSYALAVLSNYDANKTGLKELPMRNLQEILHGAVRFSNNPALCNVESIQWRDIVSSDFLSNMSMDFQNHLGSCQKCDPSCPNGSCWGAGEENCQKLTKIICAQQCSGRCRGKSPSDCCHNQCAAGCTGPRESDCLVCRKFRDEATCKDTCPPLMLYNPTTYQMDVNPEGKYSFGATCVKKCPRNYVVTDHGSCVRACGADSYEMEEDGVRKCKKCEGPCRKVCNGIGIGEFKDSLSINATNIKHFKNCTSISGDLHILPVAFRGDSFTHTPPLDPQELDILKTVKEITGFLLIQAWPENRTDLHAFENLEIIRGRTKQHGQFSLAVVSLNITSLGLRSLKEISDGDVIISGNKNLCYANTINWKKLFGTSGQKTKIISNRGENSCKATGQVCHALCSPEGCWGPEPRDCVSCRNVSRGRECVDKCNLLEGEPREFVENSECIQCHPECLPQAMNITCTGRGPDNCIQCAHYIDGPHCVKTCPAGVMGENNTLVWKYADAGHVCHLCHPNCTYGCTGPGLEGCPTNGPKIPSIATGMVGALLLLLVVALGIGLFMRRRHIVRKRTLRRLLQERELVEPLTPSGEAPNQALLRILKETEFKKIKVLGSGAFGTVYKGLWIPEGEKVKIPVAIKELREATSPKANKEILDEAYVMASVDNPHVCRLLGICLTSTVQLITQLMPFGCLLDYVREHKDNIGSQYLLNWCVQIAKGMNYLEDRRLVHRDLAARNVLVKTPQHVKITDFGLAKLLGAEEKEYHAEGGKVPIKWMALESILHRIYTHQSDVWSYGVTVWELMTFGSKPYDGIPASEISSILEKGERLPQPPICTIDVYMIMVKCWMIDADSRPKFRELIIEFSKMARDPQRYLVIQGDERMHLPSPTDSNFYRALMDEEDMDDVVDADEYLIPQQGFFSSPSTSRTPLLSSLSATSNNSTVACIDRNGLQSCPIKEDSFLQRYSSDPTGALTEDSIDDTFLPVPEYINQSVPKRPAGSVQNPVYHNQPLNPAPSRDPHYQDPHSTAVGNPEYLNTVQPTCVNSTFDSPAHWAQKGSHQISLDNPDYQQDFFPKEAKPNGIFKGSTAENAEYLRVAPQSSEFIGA

Row | Compound | Biochem EGFR %Inhibition (EGFR) [%] | PDGF Kinase %Inhibition (PDGF-R) [%]
1 | CCOC(=O)c1cc(C=C2C(=O)Nc3c(Br)cc(Br)cc32)oc1C [10718/A06] | 19.4 | –
2 | O=C1Nc2c(Br)cc(Br)cc2C1=Cc1ccc(Cl)c([N+](=O)[O-])c1 [10718/A08] | 5.8 | –
3 | COc1cccc(C=C2C(=O)Nc3ccc(S(=O)(=O)Nc4ccc(C(F)(F)F)cc4)cc32)c1OC [10727/E11] | -33.4 | 7.9
4 | Cc1c(Br)ccc2c1C(=Cc1cccc(C(F)(F)F)c1F)C(=O)N2 [10728/C07] | 8.3 | 8.9
5 | O=C1Nc2ccc(S(=O)(=O)N3CCOCC3)cc2C1=Cc1ccccc1Sc1ccc(Cl)cc1 [10727/F05] | -9.1 | -3.7
6 | N#Cc1cccc(C=C2C(=O)Nc3ccc(CCCl)cc32)c1 [10727/G08] | -19.6 | -7.4
7 | COc1ccc(OC)c(C=C2C(=O)Nc3ccc(Br)c(C)c32)c1 [10728/C02] | -35.4 | 42.3
8 | O=C1Nc2c(Br)cc(Br)cc2C1=Cc1cccc(C(F)(F)F)c1F [10728/A07] | 59.6 | 31.1
9 | COc1cccc(C=C2C(=O)Nc3ccc(CCCl)cc32)c1OC [10727/G11] | -3.5 | 15.9
10 | O=C1Nc2c(Br)cc(Br)cc2C1=Cc1cc(C(F)(F)F)ccc1F [10728/A08] | 24.1 | 0.5
11 | CCc1cc(CC)c(C=C2C(=O)Nc3ccc(CCCl)cc32)[nH]1 [10727/G03] | 19.4 | -10.3
12 | CNS(=O)(=O)c1ccc2c(c1)C(=Cc1ccc(C#N)cc1)C(=O)N2 [10727/D09] | 15.1 | 7.2
13 | CCOC(=O)c1c(C)[nH]c(C=C2C(=O)Nc3c(Br)cc(Br)cc32)c1C [10718/A02] | 11.3 | –
14 | O=C1Nc2ccc(CCCl)cc2C1=Cc1cc(O)ccc1O [10727/G10] | 85.1 | 10.8
15 | CNS(=O)(=O)c1ccc2c(c1)C(=Cc1cccc(OC)c1OC)C(=O)N2 [10727/D11] | -23.7 | 17.4
16 | O=C(O)COc1ccccc1C=C1C(=O)Nc2ccc(I)cc21 [10728/B10] | 16.8 | 2.7
17 | O=C1Nc2ccc(S(=O)(=O)Nc3ccc(C(F)(F)F)cc3)cc2C1=Cc1coc2ccccc2c1=O [10727/E07] | 7.1 | 10.1
18 | N#Cc1cccc(C=C2C(=O)Nc3ccc(S(=O)(=O)N4CCOCC4)cc32)c1 [10727/F08] | -5.4 | 10.1
19 | COc1cccc(OC)c1C=C1C(=O)Nc2c(Br)cc(Br)cc21 [10728/A03] | -25.8 | -7.9
20 | CNS(=O)(=O)c1ccc2c(c1)C(=Cc1cc(Cl)cc(Br)c1O)C(=O)N2 [10727/D04] | 39.6 | 6.4
21 | O=C1Nc2ccc(S(=O)(=O)Nc3ccc(C(F)(F)F)cc3)cc2C1=Cc1cc(O)ccc1O [10727/E10] | 85.1 | 5.0
22 | O=C1Nc2ccc(CCCl)cc2C1=Cc1cc2c(cc1Cl)OCO2 [10727/G06] | -12.1 | -12.5
23 | COc1cc(C=C2C(=O)Nc3ccc(I)cc32)cc(OC)c1 [10728/B04] | -2.0 | 9.8
24 | N#Cc1ccc(C=C2C(=O)Nc3ccc(S(=O)(=O)N4CCOCC4)cc32)cc1 [10727/F09] | -2.0 | 21.7
25 | Cc1c(Br)ccc2c1C(=Cc1ccc3c(c1)Cc1ccccc1-3)C(=O)N2 [10728/C06] | 4.2 | 2.7
26 | COc1cc(C=C2C(=O)Nc3ccc(Br)c(C)c32)cc(OC)c1 [10728/C04] | 16.1 | 27.2
27 | N#Cc1cccc(C=C2C(=O)Nc3ccc(S(=O)(=O)Nc4ccc(C(F)(F)F)cc4)cc32)c1 [10727/E08] | 25.6 | 23.9
28 | O=C1Nc2ccc(I)cc2C1=Cc1c(F)cccc1C(F)(F)F [10728/B09] | 31.7 | -0.4
29 | COc1cccc(C=C2C(=O)Nc3ccc(S(=O)(=O)N4CCOCC4)cc32)c1OC [10727/F11] | -2.6 | 18.1
30 | O=C1Nc2ccc(CCCl)cc2C1=Cc1ccccc1Sc1ccc(Cl)cc1 [10727/G05] | 11.2 | -2.3
